Assay results as given in PubChem BioAssay AID1963422 (Molecular Pharmacology Branch, DTP, NCI, 2024).

Test system: 463943-066-T-J2-PDC complex spheroid growth
Test: Anticancer human tumor 463943-066-T-J2-PDC patient-derived colon adenocarcinoma cell line growth inhibition [Asc]
Details: for IC50: curve of first compound; for viability, T/C: stronger effect = lower value; active means viability on the fitted dose curve at most 10% of control; inactive means the rest
Method in brief: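 Tumor cells were grown as multicellular spheroids with stromal HUVEC and mesenchymal stem cells and treated singly or in combination. Concentrations fell in half-log steps from the clinical Cmax, or from 10 microM where none was known.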
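Further: compound exposure lasted 7 days.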
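Wherever viability, T/C is given: 100% = DMSO vehicle control wells.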

Cc1nc(N2CCC3(CC2)COC(C)C3N)c(CO)nc1Sc1ccnc(N)c1Cl (configuration not stated) + Cc1c(S(C)(=O)=O)c(-c2cc(F)cc(N3CCN(c4ccc(NS(=O)(=O)c5ccc(NC(CCN6CCC(C(=O)OCCCP(=O)(O)O)CC6)CSc6ccccc6)c(S(=O)(=O)C(F)(F)F)c5)cc4)CC3)c2)c(-c2ccc(Cl)cc2)n1C(C)C
0.185 µM: IC50 (second compound 3.16 µM)
inactive: viability, T/C (second compound 0.0316 µM, first compound 0.00949 µM) 106% | viability, T/C (second compound 0.0316 µM, first compound 0.03 µM) 86.8% | viability, T/C (second compound 0.0316 µM, first compound 0.0949 µM) 87.3% | viability, T/C (second compound 0.0316 µM, first compound 0.3 µM) 87.3% | viability, T/C (second compound 0.0316 µM, first compound 0.949 µM) 77.8% | viability, T/C (second compound 0.0316 µM, first compound 3 µM) 63.9% | viability, T/C (second compound 0.1 µM, first compound 0.00949 µM) 93.1% | viability, T/C (second compound 0.1 µM, first compound 0.03 µM) 87.2% | viability, T/C (second compound 0.1 µM, first compound 0.0949 µM) 90.7% | viability, T/C (second compound 0.1 µM, first compound 0.3 µM) 82.4% | viability, T/C (second compound 0.1 µM, first compound 0.949 µM) 75.1% | viability, T/C (second compound 0.1 µM, first compound 3 µM) 58.1% | viability, T/C (second compound 0.316 µM, first compound 0.00949 µM) 84% | viability, T/C (second compound 0.316 µM, first compound 0.03 µM) 85.1% | viability, T/C (second compound 0.316 µM, first compound 0.0949 µM) 78.5% | viability, T/C (second compound 0.316 µM, first compound 0.3 µM) 71.1% | viability, T/C (second compound 0.316 µM, first compound 0.949 µM) 65.8% | viability, T/C (second compound 0.316 µM, first compound 3 µM) 52.4% | viability, T/C (second compound 1 µM, first compound 0.00949 µM) 77.2% | viability, T/C (second compound 1 µM, first compound 0.03 µM) 73.7% | viability, T/C (second compound 1 µM, first compound 0.0949 µM) 66% | viability, T/C (second compound 1 µM, first compound 0.3 µM) 67.6% | viability, T/C (second compound 1 µM, first compound 0.949 µM) 64.9% | viability, T/C (second compound 1 µM, first compound 3 µM) 50.7% | viability, T/C (second compound 3.16 µM, first compound 0.00949 µM) 57% | viability, T/C (second compound 3.16 µM, first compound 0.03 µM) 58.5% | viability, T/C (second compound 3.16 µM, first compound 0.0949 µM) 51% | viability, T/C (second compound 3.16 µM, first compound 0.3 µM) 49.2% | viability, T/C (second compound 3.16 µM, first compound 0.949 µM) 41.4% | viability, T/C (second compound 3.16 µM, first compound 3 µM) 36.5% | viability, T/C (second compound 10 µM, first compound 0.00949 µM) 48.7% | viability, T/C (second compound 10 µM, first compound 0.03 µM) 44.8% | viability, T/C (second compound 10 µM, first compound 0.0949 µM) 41.4% | viability, T/C (second compound 10 µM, first compound 0.3 µM) 39.4% | viability, T/C (second compound 10 µM, first compound 0.949 µM) 35.9% | viability, T/C (second compound 10 µM, first compound 3 µM) 27.6%
> 3 µM: IC50 (second compound 0.0316 µM) | IC50 (second compound 0.1 µM) | IC50 (second compound 0.316 µM) | IC50 (second compound 1 µM)
< 0.00949 µM: IC50 (second compound 10 µM)
